In patent publication US12297207B2, “Maytansinoid derivatives, conjugates thereof, and methods of use” (priority 2015, dated 2025):
Where two headings read alike, the source gives them in different places.

What was measured:
[1] = tested on: Ovcar3 (Muc16+) cells; assay: In vitro cytotoxicity assay (CCK8 viability), Ovcar3 cells; assay type: cell-based
Procedure: (§1) In this Example, the ability of various antibody-drug conjugates or their associated payloads to kill antigen-expressing tumor cells in vitro was assessed.
(§2) Ovcar3 (Muc16+) or C4-2 (PSMA+) cells were seeded in 96 well plates at 3000 (C42) cells per well in complete growth media and grown overnight. For cell viability curves, serially diluted conjugates or payloads were added to the cells at final concentrations ranging from 300 nM to 5 pM and incubated for 3 days. To measure viability, cells were incubated with CCK8 (Dojindo) for the final 1-3 hours and the absorbance at 450 nm (OD450) was determined on a Victor (Perkin Elmer). Background OD450 levels determined from digitonin ([…]) treated cells were subtracted from all wells and viability is expressed as a percentage of the untreated controls. IC50 values were determined from a four-parameter logistic equation over a 10-point response curve (GraphPad Prism). All conjugate curves and IC50 values are corrected for payload equivalents.

[2] = tested on: C4-2 (PSMA+) cells; assay: In vitro cytotoxicity assay (CCK8 viability), C4-2 cells; assay type: cell-based
Procedure: as §1, §2

[3] = tested on: T47D ductal carcinoma line (PRLR+); assay: In vitro cytotoxicity assay (CellTiter-Glo), T47D cells; assay type: cell-based, human; settings: for IC50: 5 days, corrected for payload equivalents, read-out: IC50 (cytotoxicity of T47D cells); for maximum percent killing: T47D cells
Procedure: The present example provides cytotoxicity assays for conjugates provided herein. To evaluate the ability of anti-PRLR antibodies conjugated with 63, 60, 77, and 78 to kill a PRLR expressing cell line, an in vitro cytotoxicity assay using a T47D ductal carcinoma line (ATCC, #HTB-133), which was previously determined to express >27,000 copies of human PRLR at its cell surface, was utilized.
For the assay, T47D cells were seeded onto white 96 well plates at 2,000 cells/well in media containing DMEM supplemented with 10% FBS, NEAA, and pencillin/streptomycinin (complete media). They were grown overnight at 37° C. in 5% CO2. To determine cell viability curves, the following day antibody drug conjugates, unconjugated antibodies, or free payloads were added to the cells at final serial dilutions ranging from 100 nM to 0.01 nM in complete medium and then incubated for an additional 5 days. Luciferase activity was detected after the addition of CellTiter-Glo™ reagent (Promega, G7571) to each well, which contains reagents to lyse the remaining viable cells to release their ATP, ATPase inhibitors to prevent degradation of the ATP, as well as luciferin and luciferase to catalyse the luminescent reaction. Viable cells prior to addition of CellTiter-Glo will be the only source of ATP since the dead cells in culture will not synthesis ATP and any of their released ATP will be destroyed via endogenous ATPases. Relative light units (RLUs) were measured on a Victor luminometer (PerkinElmer) and the results were determined using a four-parameter logistic equation over a 10-point response curve (GraphPad Prism). All measured values and calculated IC50 values were corrected for payload equivalents. All IC50 values are expressed in nM concentration and percent kill is reported for the highest concentration tested.

[4] = molecular target: T1, human PRLR extracellular domain (hPRLR-MMH) (Homo sapiens, UniProt P16471); assay: Surface plasmon resonance (Biacore 3000) binding kinetics; settings: 25° C.
T1 construct: human PRLR extracellular domain expressed with a C-terminal myc-myc-hexahistidine tag; myc-myc-hexahistidine (MMH) (C); made in house
T1 sequence (P16471 25-234 limits assumed): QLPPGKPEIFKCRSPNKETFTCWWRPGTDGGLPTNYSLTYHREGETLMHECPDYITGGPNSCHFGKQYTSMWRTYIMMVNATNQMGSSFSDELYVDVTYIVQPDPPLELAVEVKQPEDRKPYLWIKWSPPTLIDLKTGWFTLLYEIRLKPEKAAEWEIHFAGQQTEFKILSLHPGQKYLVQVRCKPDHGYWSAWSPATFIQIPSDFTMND
Procedure: Equilibrium dissociation constants (KD values) for human PRLR binding to purified anti-PRLR antibodies that were either unmodified H1H6958N2, PRLR-Q, and PRLR-Q-63 were determined using a real-time surface plasmon resonance biosensor using a Biacore 3000 instrument. The Biacore sensor surface was first derivatized by amine coupling with a monoclonal mouse anti-human Fc antibody (GE, #BR-1008-39) to capture anti-PRLR monoclonal antibodies. All binding studies were performed in 0.01M HEPES pH 7.4, 0.15M NaCl, 3 mM EDTA, and 0.05% v/v Surfactant Tween-20 (HBS-ET running buffer) at 25° C. and 37° C. Different concentrations of human PRLR extracellular domain expressed with a C-terminal myc-myc-hexahistidine tag (hPRLR-MMH; SEQ ID NO: 401 as described in patent application WO 2015026907 A1), in HBS-ET running buffer ([…]) were injected over the anti-PRLR antibody captured surface for 4 minutes at a flow rate of 50 μL/minute and their dissociation in HBS-ET running buffer was monitored for 8 minutes. Kinetic association rate constant (ka) and dissociation rate constant (kd) were determined by fitting the real-time sensorgrams to a 1:1 binding model using Scrubber 2.0c curve fitting software. Binding dissociation equilibrium constants (KD) and dissociative half-lives (t½) were calculated from the kinetic rate constants as: […]

[5] = Ovcar-3 cells, 3 days, conjugate values corrected for payload equivalents, read-out: IC50
[6] = Table 2, payloads only, read-out: Ovcar3 IC50
[7] = Table 5, payloads only, read-out: Ovcar3 IC50
[8] = C4-2 cells, 3 days, conjugate values corrected for payload equivalents, read-out: IC50
[9] = Table 2, payloads only, read-out: C4-2 IC50
[10] = Table 5, payloads only, read-out: C4-2 IC50

## COc1cc2cc(c1Cl)N(C)C(=O)C[C@H](OC(=O)[C@H](C)N(C)C(=O)c1ccc(N)cc1)[C@]1(C)O[C@H]1[C@H](C)[C@@H]1C[C@@](O)(NC(=O)O1)[C@H](OC)/C=C/C=C(\C)C2 [Compound 27, Maytansin-N-methyl-L-alanine-4-aminobenzamide]
[1]; [5]
  IC50: 0.06 nM
[1]; Table 2, payloads only
  Ovcar3 % kill: 92%
[1]; [6]
  IC50: 0.09 nM
[1]; Table 5, payloads only
  Ovcar3 % kill: 92%
[1]; [7]
  IC50: 0.09 nM
[2]; [8]
  IC50: 0.2 nM
[2]; Table 2, payloads only
  C4-2 % kill: 84%
[2]; [9]
  IC50: 0.2 nM
[2]; Table 5, payloads only
  C4-2 % kill: 84%
[2]; [10]
  IC50: 0.2 nM
[3]
  IC50: 0.1 nM
[3]; highest concentration tested
  maximum percent killing: 67%

## COc1cc2cc(c1Cl)N(C)C(=O)C[C@H](OC(=O)[C@H](C)N(C)C(=O)c1ccc(N)cc1F)[C@]1(C)O[C@H]1[C@H](C)[C@@H]1C[C@@](O)(NC(=O)O1)[C@H](OC)/C=C/C=C(\C)C2 [Compound 29, Maytansin-N-methyl-L-alanine-(2-fluoro-4-amino)benzamide]
[1]; Table 2, payloads only
  Ovcar3 % kill: 93%
[1]; [6]
  IC50: 0.13 nM
[1]; Table 5, payloads only
  Ovcar3 % kill: 93%
[1]; [7]
  IC50: 0.13 nM
[2]; Table 2, payloads only
  C4-2 % kill: 83%
[2]; [9]
  IC50: 0.27 nM
[2]; Table 5, payloads only
  C4-2 % kill: 83%
[2]; [10]
  IC50: 0.27 nM
[3]
  IC50: 0.07 nM
[3]; highest concentration tested
  maximum percent killing: 67%
[3]; Table 5, payloads only, highest concentration tested
  T47D % kill: 67%

## COc1cc(N)ccc1C(=O)N(C)[C@@H](C)C(=O)O[C@H]1CC(=O)N(C)c2cc(cc(OC)c2Cl)C/C(C)=C/C=C/[C@@H](OC)[C@@]2(O)C[C@H](OC(=O)N2)[C@@H](C)[C@@H]2O[C@@]12C [Compound 33, Maytansin-N-methyl-L-alanine-(2-methoxy-4-amino)benzamide]
[1]; [5]
  IC50: 0.11 nM
[1]; Table 2, payloads only
  Ovcar3 % kill: 93%
[1]; [6]
  IC50: 0.2 nM
[1]; Table 5, payloads only
  Ovcar3 % kill: 93%
[1]; [7]
  IC50: 0.2 nM
[2]; [8]
  IC50: 0.55 nM
[2]; Table 2, payloads only
  C4-2 % kill: 86%
[2]; [9]
  IC50: 0.45 nM
[2]; Table 5, payloads only
  C4-2 % kill: 86%
[2]; [10]
  IC50: 0.45 nM

## COc1cc2cc(c1Cl)N(C)C(=O)C[C@H](OC(=O)[C@H](C)N(C)C(=O)c1ccc(N)c(C(F)(F)F)c1)[C@]1(C)O[C@H]1[C@H](C)[C@@H]1C[C@@](O)(NC(=O)O1)[C@H](OC)/C=C/C=C(\C)C2 [Compound 35, Maytansin-N-methyl-L-alanine-N-(3-trifluoromethyl-4-amino)benzamide]
[1]; Table 2, payloads only
  Ovcar3 % kill: 93%
[1]; [6]
  IC50: < 0.01 nM
[1]; Table 5, payloads only
  Ovcar3 % kill: 93%
[1]; [7]
  IC50: < 0.01 nM
[2]; Table 2, payloads only
  C4-2 % kill: 84%
[2]; [9]
  IC50: 0.004 nM
[2]; Table 5, payloads only
  C4-2 % kill: 84%
[2]; [10]
  IC50: 0.004 nM

## COc1cc2cc(c1Cl)N(C)C(=O)C[C@H](OC(=O)[C@H](C)N(C)C(=O)c1cc(F)c(N)cc1Cl)[C@]1(C)O[C@H]1[C@H](C)[C@@H]1C[C@@](O)(NC(=O)O1)[C@H](OC)/C=C/C=C(\C)C2 [Compound 37, Maytansin-N-methyl-L-alanine-N-(2-chloro-4-amino-5-fluoro)benzamide]
[1]; Table 2, payloads only
  Ovcar3 % kill: 94%
[1]; [6]
  IC50: < 0.01 nM
[1]; Table 5, payloads only
  Ovcar3 % kill: 94%
[1]; [7]
  IC50: < 0.01 nM
[2]; Table 2, payloads only
  C4-2 % kill: 86%
[2]; [9]
  IC50: 0.01 nM
[2]; Table 5, payloads only
  C4-2 % kill: 86%
[2]; [10]
  IC50: 0.01 nM

B1: H1H6958N2 (antibody, V domains shown)
VH: QVQLVESGGGVVQPGRSLRLSCGASGFTFRNYGMQWVRQGPGKGLEWVTLISFDGNDKYYADSVKGRFTISRDNSKNTLFLQMNSLRTEDTAVYYCARGGDFDYWGQGTLVTVSS
VL: DIQMTQSPSSLSASVGDRVTITCRASQDIRKDLGWYQQKPGKAPKRLIYAASSLHSGVPSRFSGSGSGTEFTLTISSLQPEDFATYYCLQHNSYPMYTFGQGTKLEIK
[4]
  ka: 417000 M⁻¹ s⁻¹
  kd: 0.000454 s⁻¹
[4]; antibody captured on anti-human Fc surface
  100 nM hPRLR-MMH Bound (RU): 38 RU
[4]; calculated from kinetic rate constants, read-out: KD
  Kd: 1.09 nM
[4]; read-out: KD value
  Kd: 1.09 nM
